Measured values published in patent publication US10925880B2, “Combination of PI3K-inhibitors” (BAYER PHARMA AKTIENGESELLSCHAFT, priority 2016, dated 2021).
Structures can show the parent of a compound that is named as a salt.

Experiments:
Type in all cases: cell-based
[1] = test system: Mantle Cell Lymphoma (MCL), Marginal zone lymphoma (MZL) and Splenic marginal zone lymphoma (SMZL) cell lines; assay: 72-hour cell proliferation assay, summary over the cell line panel; details: ten MCL, three MZL and three SMZL cell lines, range over panel
Procedure: (§1) Combinations of Copanlisib and ABT-199 or Palbociclib in a Panel Cell Lines Assessed by the Combination Index (CI) of a 72-Hour Cell Proliferation Assay The effect of combinations of the present invention was evaluated using combination index isobologram analysis for in vitro assessment. The efficacy parameter was the effect in a 72-hour cell proliferation assay. Briefly, 3000 cells were plated in 384-well plates with appropriate growth medium. […] Cells were treated for 72 hours followed by assessment of cell viability by means of Cell Titer Glo assay (Promega). Experiments were conducted in duplicates. The mapping IC50 values were calculated. The corresponding component concentrations of copanlisib and ABT-199 or Palbociclib were calculated and used for plotting isobolograms. Effects were analyzed as described by Chou (Pharmacology Reviews 2006) and the combination index was calculated using the formula: Combination Index=[Ax]/A′+[Bx]/B′ [Ax] and [Bx] refer to component A and component B. A′ and B′ refer to the IC50 values of A and B, respectively, as a single agent. […] Cis of 0.9-1.1 were defined as additive effect. Cis greater than 1.1 were defined as antagonistic effects.

HC-1 = assay: 72-hour cell proliferation assay (Cell Titer Glo); details: HC-1 (MZL), single agent; for IC50: 72 h
Procedure: as §1

SSK41 = assay: 72-hour cell proliferation assay (Cell Titer Glo); details: SSK41 (SMZL), single agent; for IC50: 72 h
Procedure: as §1

REC-1 = assay: 72-hour cell proliferation assay (Cell Titer Glo); details: REC-1 (MCL), single agent; for IC50: Homo sapiens, Rec1, 72 h
Procedure: as §1

Z-138 = assay: 72-hour cell proliferation assay (Cell Titer Glo); details: Z-138 (MCL), single agent; for IC50: Homo sapiens, 72 h
Procedure: as §1

JEKO-1 = assay: 72-hour cell proliferation assay (Cell Titer Glo); details: JEKO-1 (MCL), single agent; for IC50: Homo sapiens, 72 h
Procedure: as §1

MINO = assay: 72-hour cell proliferation assay (Cell Titer Glo); details: MINO (MCL), single agent; for IC50: Homo sapiens, 72 h
Procedure: as §1

SP-49 = assay: 72-hour cell proliferation assay (Cell Titer Glo); details: SP-49 (MCL), single agent; for IC50: 72 h
Procedure: as §1

JVM-2 = assay: 72-hour cell proliferation assay (Cell Titer Glo); details: JVM-2 (MCL), single agent; for IC50: Homo sapiens, 72 h
Procedure: as §1

HAIR-M = assay: 72-hour cell proliferation assay (Cell Titer Glo); details: HAIR-M (MZL), single agent; for IC50: 72 h
Procedure: as §1

GRANTA-519 = assay: 72-hour cell proliferation assay (Cell Titer Glo); details: GRANTA-519 (MCL), single agent; for IC50: Homo sapiens, 72 h
Procedure: as §1

VL51 = assay: 72-hour cell proliferation assay (Cell Titer Glo); details: VL51 (SMZL), single agent; for IC50: Homo sapiens, 72 h
Procedure: as §1

ESKOL = assay: 72-hour cell proliferation assay (Cell Titer Glo); details: ESKOL (MZL), single agent; for IC50: 72 h
Procedure: as §1

KARPAS-1718 = assay: 72-hour cell proliferation assay (Cell Titer Glo); details: KARPAS-1718 (SMZL), single agent; for IC50: 72 h
Procedure: as §1

MAVER-1 = assay: 72-hour cell proliferation assay (Cell Titer Glo); details: MAVER-1 (MCL), single agent; for IC50: Homo sapiens, Maver1, 72 h
Procedure: as §1

SP-53 = assay: 72-hour cell proliferation assay (Cell Titer Glo); details: SP-53 (MCL), single agent; for IC50: 72 h
Procedure: as §1

UPN1 = assay: 72-hour cell proliferation assay (Cell Titer Glo); details: single agent; for IC50: UPN1 (MCL), 72 h
Procedure: as §1

IC50 (KARPAS-1718) [nM]	Structure (SMILES)	IC50 (HC-1) [nM]	IC50 (SSK41) [nM]	IC50 (REC-1) [nM]	IC50 (Z-138) [nM]	IC50 (JEKO-1) [nM]	IC50 (MINO) [nM]	IC50 (SP-49) [nM]	IC50 (JVM-2) [nM]	IC50 (HAIR-M) [nM]	IC50 (GRANTA-519) [nM]	IC50 (VL51) [nM]	IC50 (ESKOL) [nM]	IC50 (MAVER-1) [nM]	IC50 (SP-53) [nM]	IC50 (UPN1) [nM]	other results
15.1	COc1c(OCCCN2CCOCC2)ccc2c1N=C(NC(=O)c1cnc(N)nc1)N1CCN=C21 [copanlisib, 2-amino-N—[7-methoxy-8-(3-morpholin-4-ylpropoxy)-2,3-dihydroimidazo[1,2-c]quinazolin-5-yl]pyrimidine-5-carboxamide dihydrochloride]	183	50.8	6	20.5	40.9	102	2.5	21.7	5.39	111	20.7	98.8	104	1.43	15	monotherapy anti-proliferative activity [1]: very strong to moderate; monotherapy anti-proliferative activity (HC-1): moderate; monotherapy anti-proliferative activity (SSK41): strong; monotherapy anti-proliferative activity (REC-1): very strong; monotherapy anti-proliferative activity (Z-138): strong; monotherapy anti-proliferative activity (JEKO-1): strong; monotherapy anti-proliferative activity (MINO): moderate; monotherapy anti-proliferative activity (SP-49): very strong; monotherapy anti-proliferative activity (JVM-2): strong; monotherapy anti-proliferative activity (HAIR-M): very strong; monotherapy anti-proliferative activity (GRANTA-519): moderate; monotherapy anti-proliferative activity (VL51): strong; monotherapy anti-proliferative activity (ESKOL): strong; monotherapy anti-proliferative activity (KARPAS-1718): strong; monotherapy anti-proliferative activity (MAVER-1): moderate; monotherapy anti-proliferative activity (SP-53): very strong; monotherapy anti-proliferative activity (UPN1; UPN-1 (MCL)): strong
7650	CC(=O)c1c(C)c2cnc(Nc3ccc(N4CCNCC4)cn3)nc2n(C2CCCC2)c1=O [palbociclib, reference compound]	2300	2310	4710	1290	404	575	205	5660	1560	≥ 10000	≥ 10000	2070	470	95.9	3400	
3.72	CC1(C)CCC(CN2CCN(c3ccc(C(=O)NS(=O)(=O)c4ccc(NCC5CCOCC5)c([N+](=O)[O-])c4)c(Oc4cnc5[nH]ccc5c4)c3)CC2)=C(c2ccc(Cl)cc2)C1 [venetoclax, reference compound]	≥ 10000	6230	20.3	1000	3430	1.28	1720	5740	256	17.7	1490	≥ 10000	1.86	≥ 10000	≥ 10000	
